How the values were obtained:
Assay type in all cases: in vivo
Kochia (Kochia scoparia) [1] = assay: Test A preemergence; settings: Bassia scoparia, pre-emergence, 240 h, preemergence, read-out: Plant response rating, Kochia; for pest or weed control at 125 g/ha: 125 g ai/ha, visual rating after approx. 10 d, 0 to 100 scale where 0 is no effect and 100 is complete control; for pest or weed control at 500 g/ha: 500 g ai/ha, 0 to 100 scale, 0 = no effect, 100 = complete control
Method in brief: (§1)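 Preemergence directed soil spray on seeded pots, or postemergence application to plants 2–10 cm, one- to two-leaf. Solvent mixture non-phytotoxic, with surfactant. Scored ~10 d later, visually, 0–100 vs untreated.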

[2] = system: barnyardgrass (Echinochloa crus-galli); assay: Test A preemergence; settings: Echinochloa crus-galli, pre-emergence, 240 h, preemergence, read-out: Plant response rating, Barnyardgrass; for pest or weed control at 125 g/ha: 125 g ai/ha, visual rating after approx. 10 d, 0 to 100 scale where 0 is no effect and 100 is complete control; for pest or weed control at 500 g/ha: 500 g ai/ha, 0 to 100 scale, 0 = no effect, 100 = complete control
Method in brief: as §1

[3] = system: giant foxtail (Setaria faberii); assay: Test A preemergence; settings: Setaria faberi, pre-emergence, 240 h, preemergence, read-out: Plant response rating, Foxtail, Giant; for pest or weed control at 125 g/ha: 125 g ai/ha, visual rating after approx. 10 d, 0 to 100 scale where 0 is no effect and 100 is complete control; for pest or weed control at 500 g/ha: 500 g ai/ha, 0 to 100 scale, 0 = no effect, 100 = complete control
Method in brief: as §1

[4] = system: pigweed (Amaranthus retroflexus); assay: Test A preemergence; settings: Amaranthus retroflexus, pre-emergence, 240 h, preemergence, read-out: Plant response rating, Pigweed; for pest or weed control at 125 g/ha: 125 g ai/ha, visual rating after approx. 10 d, 0 to 100 scale where 0 is no effect and 100 is complete control; for pest or weed control at 500 g/ha: 500 g ai/ha, 0 to 100 scale, 0 = no effect, 100 = complete control
[5] = system: ragweed (common ragweed, Ambrosia elatior); assay: Test A preemergence; settings: Ambrosia artemisiifolia, pre-emergence, 240 h, preemergence, read-out: Plant response rating, Ragweed; for pest or weed control at 125 g/ha: 125 g ai/ha, visual rating after approx. 10 d, 0 to 100 scale where 0 is no effect and 100 is complete control; for pest or weed control at 500 g/ha: 500 g ai/ha, 0 to 100 scale, 0 = no effect, 100 = complete control
Method in brief: as §1

[6] = system: ryegrass, Italian (Italian ryegrass, Lolium multiflorum); assay: Test A preemergence; settings: Lolium multiflorum, pre-emergence, 240 h, preemergence, read-out: Plant response rating, Ryegrass, Italian; for pest or weed control at 125 g/ha: 125 g ai/ha, visual rating after approx. 10 d, 0 to 100 scale where 0 is no effect and 100 is complete control; for pest or weed control at 500 g/ha: 500 g ai/ha, 0 to 100 scale, 0 = no effect, 100 = complete control
Method in brief: as §1

Kochia (Kochia scoparia) [7] = assay: Test A postemergence; settings: Bassia scoparia, post-emergence, 240 h, 125 g ai/ha, postemergence; visual injury after approximately 10 d; 0 to 100 scale (0 no effect, 100 complete control); read-out: Plant response rating, Kochia
Method in brief: as §1

[8] = system: blackgrass (Alopecurus myosuroides); assay: Test A postemergence; settings: Alopecurus myosuroides, post-emergence, 240 h, 125 g ai/ha, postemergence; visual injury after approximately 10 d; 0 to 100 scale (0 no effect, 100 complete control); read-out: Plant response rating, Blackgrass
Method in brief: as §1

[9] = system: giant foxtail (Setaria faberii); assay: Test A postemergence; settings: Setaria faberi, post-emergence, 240 h, 125 g ai/ha, postemergence; visual injury after approximately 10 d; 0 to 100 scale (0 no effect, 100 complete control); read-out: Plant response rating, Foxtail, Giant
Method in brief: as §1

[10] = system: ryegrass, Italian (Italian ryegrass, Lolium multiflorum); assay: Test A postemergence; settings: Lolium multiflorum, post-emergence, 240 h, 125 g ai/ha, postemergence; visual injury after approximately 10 d; 0 to 100 scale (0 no effect, 100 complete control); read-out: Plant response rating, Ryegrass, Italian
Method in brief: as §1

[11] = system: barnyardgrass (Echinochloa crus-galli); assay: Test B flooded paddy test; settings: Echinochloa crus-galli, Flood, 250 g ai/ha; scale of 0 to 100 where 0 is no effect and 100 is complete control; read-out: Barnyardgrass plant response rating
Method in brief: (§2)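 Flooding to 3 cm over soil accompanied treatment, which consisted of adding compound to the standing water around 2-leaf plants; depth was then maintained. Visual assessment versus controls followed at 13 to 15 d (scale 0–100, 0 meaning no effect).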

[12] = system: ducksalad (Heteranthera limosa); assay: Test B flooded paddy test; settings: Heteranthera limosa, Flood, 250 g ai/ha; scale of 0 to 100 where 0 is no effect and 100 is complete control; read-out: Ducksalad plant response rating
Method in brief: as §2

rice (Oryra sativa) = assay: Test B flooded paddy test; settings: Oryza sativa, Flood, 250 g ai/ha; scale of 0 to 100 where 0 is no effect and 100 is complete control; read-out: Rice plant response rating
Method in brief: as §2

[13] = system: sedge, umbrella (small-flower umbrella sedge, Cyperus difformis); assay: Test B flooded paddy test; settings: Cyperus difformis, Flood, 250 g ai/ha; scale of 0 to 100 where 0 is no effect and 100 is complete control; read-out: Sedge, Umbrella plant response rating
Method in brief: as §2

O=C1NC[C@H](c2csc3ccccc23)[C@H]1C(=O)Nc1ccccc1F [Compound 750]
pest or weed control at 125 g/ha (Kochia (Kochia scoparia) [1]): 0%
pest or weed control at 500 g/ha (Kochia (Kochia scoparia) [1]): 0%
pest or weed control at 125 g/ha [2]: 80%
pest or weed control at 500 g/ha [2]: 90%
pest or weed control at 125 g/ha [3]: 50%
pest or weed control at 500 g/ha [3]: 90%
pest or weed control at 125 g/ha [4]: 0%
pest or weed control at 500 g/ha [4]: 0%
pest or weed control at 125 g/ha [5]: 0%
pest or weed control at 500 g/ha [5]: 0%
pest or weed control at 125 g/ha [6]: 0%
pest or weed control at 500 g/ha [6]: 20%
pest or weed control at 125 g/ha (Kochia (Kochia scoparia) [7]): 0%
pest or weed control at 125 g/ha [8]: 0%
pest or weed control at 125 g/ha [9]: 20%
pest or weed control at 125 g/ha [10]: 0%
pest or weed control at 250 g/ha [11]: 0%
pest or weed control at 250 g/ha [12]: 90%
pest or weed control at 250 g/ha (rice (Oryra sativa)): 0%
pest or weed control at 250 g/ha [13]: 0%

O=C1NC[C@H](c2csc3ccccc23)[C@H]1C(=O)Nc1cccc(F)c1F [Compound 751]
pest or weed control at 125 g/ha (Kochia (Kochia scoparia) [1]): 20%
pest or weed control at 125 g/ha [2]: 90%
pest or weed control at 500 g/ha [2]: 90%
pest or weed control at 125 g/ha [3]: 80%
pest or weed control at 500 g/ha [3]: 90%
pest or weed control at 125 g/ha [4]: 0%
pest or weed control at 500 g/ha [4]: 0%
pest or weed control at 125 g/ha [5]: 20%
pest or weed control at 500 g/ha [5]: 40%
pest or weed control at 125 g/ha [6]: 0%
pest or weed control at 500 g/ha [6]: 20%
pest or weed control at 125 g/ha (Kochia (Kochia scoparia) [7]): 0%
pest or weed control at 125 g/ha [8]: 20%
pest or weed control at 125 g/ha [9]: 30%
pest or weed control at 125 g/ha [10]: 0%
pest or weed control at 250 g/ha [11]: 40%
pest or weed control at 250 g/ha [12]: 100%
pest or weed control at 250 g/ha (rice (Oryra sativa)): 30%
pest or weed control at 250 g/ha [13]: 0%

CN1C[C@H](c2cc(F)cc(F)c2)[C@@H](C(=O)NC2CCc3ccccc32)C1=O (some centres unmarked) [Compound 755]
pest or weed control at 125 g/ha (Kochia (Kochia scoparia) [1]): 0%
pest or weed control at 500 g/ha (Kochia (Kochia scoparia) [1]): 0%
pest or weed control at 125 g/ha [2]: 0%
pest or weed control at 500 g/ha [2]: 0%
pest or weed control at 125 g/ha [3]: 0%
pest or weed control at 500 g/ha [3]: 0%
pest or weed control at 125 g/ha [4]: 0%
pest or weed control at 500 g/ha [4]: 0%
pest or weed control at 125 g/ha [5]: 0%
pest or weed control at 500 g/ha [5]: 0%
pest or weed control at 125 g/ha [6]: 0%
pest or weed control at 500 g/ha [6]: 0%
pest or weed control at 125 g/ha (Kochia (Kochia scoparia) [7]): 0%
pest or weed control at 125 g/ha [8]: 0%
pest or weed control at 125 g/ha [9]: 0%
pest or weed control at 125 g/ha [10]: 0%
pest or weed control at 250 g/ha [11]: 0%
pest or weed control at 250 g/ha [12]: 0%
pest or weed control at 250 g/ha (rice (Oryra sativa)): 0%
pest or weed control at 250 g/ha [13]: 0%

Source: US12077503B2, “Substituted cyclic amides and their use as herbicides” (FMC CORPORATION, priority 2015, dated 2024)
